# Measured values: article PMC10064822, “The importance of including the C-terminal domain of PTP1B1-400 to identify potential antidiabetic inhibitors” (Journal of Enzyme Inhibition and Medicinal Chemistry, 2023)
# Where two headings read alike, the source gives them in different places.
# Legend:
# PTP1B1-321 = conditions: cited from earlier work
# hPTP1B1-400 [1] = target: T1, hPTP1B1-400 (Homo sapiens, UniProt P18031); test: Enzyme kinetics of hPTP1B1-400 inhibition; assay type: biochemical; design: the three purified hPTP1B constructs (hPTP1B1-285, hPTP1B1-321, and hPTP1B1-400); His-tag (N); made in house; host or cells: E. coli BL21 (DE3); conditions: for Type of inhibition: hPTP1B1-400, pNPP 0.1-0.5 mM, best fit by R^2; for Vmax: fit of inhibition model
# T1 sequence (P18031 1-400): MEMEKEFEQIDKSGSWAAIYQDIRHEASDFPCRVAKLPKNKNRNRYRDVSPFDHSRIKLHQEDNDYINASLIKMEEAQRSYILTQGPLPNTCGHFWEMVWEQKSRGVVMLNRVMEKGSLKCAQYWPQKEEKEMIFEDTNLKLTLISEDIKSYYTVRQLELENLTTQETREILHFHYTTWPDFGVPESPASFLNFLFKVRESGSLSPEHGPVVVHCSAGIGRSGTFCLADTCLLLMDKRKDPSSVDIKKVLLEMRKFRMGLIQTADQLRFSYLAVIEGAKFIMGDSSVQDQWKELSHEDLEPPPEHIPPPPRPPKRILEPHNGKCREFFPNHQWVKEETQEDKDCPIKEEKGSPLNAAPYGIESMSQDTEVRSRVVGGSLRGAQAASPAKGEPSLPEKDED
# Procedure: The negative control was prepared with the enzyme and substrate in the absence of an inhibitor. The experiments were performed in triplicate. […] (2) y= Vmax x/Km + x,
# Vmax is the maximum velocity, x is the […] concentration, and Km is the Michaelis constant.
# (3) y= Vmax (x)/Km (1+(I/Ki))+x (4) y= Vmax (x)/((1+I)/(α Ki)) /x+Km ((1+I)/ Ki)/(1+I)/(α Ki)), (5) y= Vmax (x)/ x+(Km/(1+I)/Ki)
# Vmax is the maximum velocity, x is the substrate concentration, I is the inhibitor concentration, Km is the Michaelis constant, Ki is the inhibition constant, and α=Vmax without inhibitor/Vmax with inhibitor.
# PTP1B1-301 = conditions: cited from earlier work
# PTP1B1-298 = conditions: cited from earlier work
# PTP1B1-393 = conditions: cited from earlier work
# PTP1B1-405 = conditions: cited from earlier work
# PTP1B1-299 = tested on: PTP1B1-299; design: method as in PMID 15475571; conditions: PTP1B1-299 ref [20]; cited from earlier work
# PTP1B1-400 = conditions: cited from earlier work
# hPTP1B1-321 = target: T2, hPTP1B1-321 (Homo sapiens, UniProt P18031); test: hPTP1B inhibition assay (pNPP), construct hPTP1B1-321; conditions: read-out: Km of the substrate (pNPP); hPTP1B1-321, no inhibitor
# T2 sequence (P18031 1-321): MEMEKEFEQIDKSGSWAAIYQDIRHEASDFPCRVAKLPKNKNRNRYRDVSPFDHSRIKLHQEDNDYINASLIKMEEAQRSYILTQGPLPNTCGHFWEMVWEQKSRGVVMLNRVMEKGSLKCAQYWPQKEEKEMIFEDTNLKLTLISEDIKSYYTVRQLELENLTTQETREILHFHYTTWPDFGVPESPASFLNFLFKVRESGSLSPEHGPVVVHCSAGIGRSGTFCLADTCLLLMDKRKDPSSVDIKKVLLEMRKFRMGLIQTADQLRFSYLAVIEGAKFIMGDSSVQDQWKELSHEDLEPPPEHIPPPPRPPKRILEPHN
# hPTP1B1-285 = target: T3, hPTP1B1-285 (Homo sapiens, UniProt P18031); test: hPTP1B inhibition assay (pNPP), construct hPTP1B1-285; conditions: read-out: Km of the substrate (pNPP); hPTP1B1-285, no inhibitor
# T3 sequence (P18031 1-285): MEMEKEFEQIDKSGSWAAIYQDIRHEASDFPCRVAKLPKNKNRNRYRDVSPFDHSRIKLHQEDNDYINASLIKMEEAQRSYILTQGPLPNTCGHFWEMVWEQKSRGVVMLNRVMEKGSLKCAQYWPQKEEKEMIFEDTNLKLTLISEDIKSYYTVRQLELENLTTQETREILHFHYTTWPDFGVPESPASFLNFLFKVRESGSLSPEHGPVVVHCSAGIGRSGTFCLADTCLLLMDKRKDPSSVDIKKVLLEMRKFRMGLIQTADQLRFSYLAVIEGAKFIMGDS
# hPTP1B1-400 [2] = target: T1, hPTP1B1-400; test: hPTP1B inhibition assay (pNPP), construct hPTP1B1-400; conditions: read-out: Km of the substrate (pNPP); hPTP1B1-400, no inhibitor
compound,measurement,setting,value
2-(hydroxy-phenoxy) acetic acid,Inhibition type,PTP1B1-321; PTP1B1-321 ref [38],Competitive
same,Ki,PTP1B1-321; PTP1B1-321 ref [38],9 µM
"CC1CCC2(C(=O)O)CCC3(C)C(=CCC4C5(C)C(O)C(=O)C(O)C(C)(C)C5CCC43C)C2C1(C)O (stereo not drawn) [1β,3α,19α-trihydroxy-2-oxours-12-en-28-oic acid]",IC50,PTP1B1-321; PTP1B1-321 ref [49],13.2 µM
same,Inhibition type,PTP1B1-321; PTP1B1-321 ref [49],Non-competitive
same,Ki,PTP1B1-321; PTP1B1-321 ref [49],10.8 µM
"O=C(O)C(=O)Nc1ccccc1C(=O)O [2-(Oxaloamino) benzoic acid (OBA), 2-(oxaloamino) benzoic acid]",Inhibition type,PTP1B1-321; PTP1B1-321 ref [37],Competitive
same,Ki,PTP1B1-321; PTP1B1-321 ref [37],200 µM
C[C@@H]1CC[C@]2(C(=O)O)CC[C@]3(C)C(=CC[C@@H]4[C@@]5(C)C[C@H](O)[C@H](O)C(C)(C)[C@@H]5CC[C@]43C)[C@@H]2[C@]1(C)O [2β-hydroxy pomolic acid],IC50,PTP1B1-321; PTP1B1-321 ref [49],5.88 µM
same,Inhibition type,PTP1B1-321; PTP1B1-321 ref [49],Mixed-competitive
same,Ki,PTP1B1-321; PTP1B1-321 ref [49],7.56 µM
COc1ccc(-n2ncc3c2C(C)(C)[C@@H]2CC[C@]4(C)[C@H](C(=O)C=C5[C@@H]6C[C@@](C)(C(=O)O)CC[C@]6(C)CC[C@]54C)[C@@]2(C)C3)cc1 [5 b],Type of inhibition,hPTP1B1-400 [1],Uncompetitive
same,Ki,"hPTP1B1-400 [1]; hPTP1B1-400, pNPP substrate",3.42 ± 0.2 µM
same,Vmax,"hPTP1B1-400 [1]; hPTP1B1-400, pNPP substrate",0.87 ± 0.03
"Oc1cc(Cc2cc(O)c(O)c(Br)c2Cc2cc(O)c(O)c(Br)c2Br)c(Br)c(Br)c1O [BDB, 3-bromo-4,5-bis(2,3-dibromo-4,5-dihydroxybenzyl)-1,2-benzenediol]",IC50,PTP1B1-321; PTP1B1-321 ref [21],1.86 µM
same,Inhibition type,PTP1B1-321; PTP1B1-321 ref [21],Competitive
"O=C(/C=C/c1ccc(O)c(O)c1)O[C@@H]1C[C@](O)(C(=O)O)C[C@@H](O)[C@H]1O [CGA, chlorogenic acid]",Inhibition type,PTP1B1-301; PTP1B1-301 ref [47],Non-competitive
same,Ki,PTP1B1-301; PTP1B1-301 ref [47],8200 µM
same,IC50,PTP1B1-321; PTP1B1-321 ref [39],9.82 µM
same,Inhibition type,PTP1B1-321; PTP1B1-321 ref [39],Non-competitive
CC1=C(O)C(=O)C=C2C1=CC=C1[C@@]2(C)CC[C@@]2(C)[C@@H]3C[C@](C)(C(=O)O)CC[C@]3(C)CC[C@]12C [Celastrol],IC50,PTP1B1-298; PTP1B1-298 ref [36],4.8 µM
same,Inhibition type,PTP1B1-298; PTP1B1-298 ref [36],Non-competitive
same,Kd,PTP1B1-298; PTP1B1-298 ref [36],6.1 µM
same,IC50,PTP1B1-393; PTP1B1-393 ref [36],2.1 µM
same,Inhibition type,PTP1B1-393; PTP1B1-393 ref [36],Non-competitive
"O=C(/C=C/c1ccc(O)c(O)c1)O[C@@H](C(=O)O)[C@@H](OC(=O)/C=C/c1ccc(O)c(O)c1)C(=O)O [Cichoric acid (CHA), Cichoric acid]",Inhibition type,PTP1B1-301; PTP1B1-301 ref [47],Competitive
same,Ki,PTP1B1-301; PTP1B1-301 ref [47],1400 µM
same,Inhibition type,PTP1B1-321; PTP1B1-321 ref [39],Non-competitive
COC(=O)CC[C@@H](C)[C@H]1CC[C@H]2[C@@H]3[C@H](O)C[C@H]4C[C@H](NCCCCNCc5ccccn5)CC[C@]4(C)[C@H]3CC[C@]12C [DPM-1001],IC50,PTP1B1-405; PTP1B1-405 ref [48],0.1 µM
same,Inhibition type,PTP1B1-405; PTP1B1-405 ref [48],Non-competitive
same,Kd,PTP1B1-405; PTP1B1-405 ref [48],0.075 µM
Cc1cc(-c2c3ccccc3c(Br)c3sc(C)c(C)c23)cc(C)c1O[C@H](Cc1ccccc1)C(=O)O [Ertiprotafib],IC50,PTP1B1-299,> 20 µM
same,Inhibition type,PTP1B1-299,Nonclassic kinetics: Aggregation
same,Inhibition type,PTP1B1-301; PTP1B1-301 ref [18],Nonclassic kinetics: Aggregation
same,Inhibition type,PTP1B1-393; PTP1B1-393 ref [18],Nonclassic kinetics: Aggregation
"[Na+].[Na+].[Na+].[O]=[V]([O-])([O-])[O-] [SO, sodium orthovanadate]",Type of inhibition,hPTP1B1-400 [1],Uncompetitive
same,Vmax,"hPTP1B1-400 [1]; hPTP1B1-400, pNPP substrate",3.20 ± 0.80
same,IC50,PTP1B1-321; PTP1B1-321 ref [39–42],1.38 µM
same,Inhibition type,PTP1B1-321; PTP1B1-321 ref [39–42],Competitive
same,Ki,PTP1B1-321; PTP1B1-321 ref [39–42],0.38 µM
"Cc1ccc(C(=O)Nc2ccc(S(=O)(=O)O)c3cc(S(=O)(=O)O)cc(S(=O)(=O)O)c23)cc1NC(=O)c1cccc(NC(=O)Nc2cccc(C(=O)Nc3cc(C(=O)Nc4ccc(S(=O)(=O)O)c5cc(S(=O)(=O)O)cc(S(=O)(=O)O)c45)ccc3C)c2)c1 [SUR, suramin]",IC50,PTP1B1-400; PTP1B1-400 ref [28],4.1 µM
same,Inhibition type,PTP1B1-400; PTP1B1-400 ref [28],Competitive
same,Ki,PTP1B1-400; PTP1B1-400 ref [28],7.1 µM
same,Type of inhibition,hPTP1B1-400 [1],Competitive
same,Vmax,"hPTP1B1-400 [1]; hPTP1B1-400, pNPP substrate",0.64 ± 0.02
same,IC50,"PTP1B1-321; PTP1B1-321 ref [40], [50]",11 µM
same,Inhibition type,"PTP1B1-321; PTP1B1-321 ref [40], [50]",Competitive
same,Ki,"PTP1B1-321; PTP1B1-321 ref [40], [50]",4 µM
CC(C)[C@@H](CC[C@@H](C)[C@H]1CC[C@H]2[C@@H]3[C@H](O)C[C@H]4C[C@@H](NCCCNCCCCNCCCN)CC[C@]4(C)[C@H]3CC[C@]12C)OS(=O)(=O)O [Trodusquemine],IC50,PTP1B1-400; PTP1B1-400 ref [43],1 µM
same,Inhibition type,PTP1B1-400; PTP1B1-400 ref [43],Non-competitive
same,Inhibition type,PTP1B1-405; PTP1B1-405 ref [7],Non-competitive
same,Inhibition type,PTP1B1-321; PTP1B1-321 ref [7],Non-competitive
"C[C@H]1[C@H](C)CC[C@]2(C(=O)O)CC[C@]3(C)C(=CC[C@@H]4[C@@]5(C)CC[C@H](O)C(C)(C)[C@@H]5CC[C@]43C)[C@H]12 [UA, ursolic acid]",IC50,PTP1B1-298; PTP1B1-298 ref [44],7.1 µM
same,Inhibition type,PTP1B1-298; PTP1B1-298 ref [44],Non-competitive
same,Ki,PTP1B1-298; PTP1B1-298 ref [44],25.8 µM
same,IC50,PTP1B1-400; PTP1B1-400 ref [28],5.6 µM
same,Inhibition type,PTP1B1-400; PTP1B1-400 ref [28],Non-competitive
same,Ki,PTP1B1-400; PTP1B1-400 ref [28],8.9 µM
same,Type of inhibition,hPTP1B1-400 [1],Mixed
same,Vmax,"hPTP1B1-400 [1]; hPTP1B1-400, pNPP substrate",0.63 ± 0.08
same,IC50,PTP1B1-321; PTP1B1-321 ref [45],6.6 µM
same,Inhibition type,PTP1B1-321; PTP1B1-321 ref [45],Competitive
same,IC50,PTP1B1-321; PTP1B1-321 ref [46],3.08 µM
same,Inhibition type,PTP1B1-321; PTP1B1-321 ref [46],Competitive
"O=[N+]([O-])c1ccc(OP(=O)(O)O)cc1 [pNPP, p-nitrophenyl phosphate]",Km,hPTP1B1-321,15.7 ± 1.68 mM
same,Km,hPTP1B1-285,16.4 ± 1.55 mM
same,Km,hPTP1B1-400 [2],2.03 ± 0.11 mM
